Test results: PubChem BioAssay (NCI)
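1) Cells in 96-well plates. 2) Compound, 48 h, 5 concentrations. 3) Linear interpolation between surrounding doses. 4) Unreached endpoint = highest concentration. Definition used: TGI = concentration required for complete inhibition of growth.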

Assays:
Experiment in all cases: NCI anticancer screen, dose series, 48 h
HCC-2998 colon = system: HCC-2998 colon
XF 498 CNS = system: XF 498 CNS
U251 CNS = system: U251 CNS
M14 melanoma = system: M14 melanoma
SF-539 CNS = system: SF-539 CNS
UACC-62 melanoma = system: UACC-62 melanoma
A549 NSCLC = system: A549 NSCLC
OVCAR-5 ovarian = system: OVCAR-5 ovarian
CAKI-1 renal = system: CAKI-1 renal
KM20L2 colon = system: KM20L2 colon
RXF 393 renal = system: RXF 393 renal
SK-OV-3 ovarian = system: SK-OV-3 ovarian
UACC-257 melanoma = system: UACC-257 melanoma
SN12C renal = system: SN12C renal
HCT-116 colon = system: HCT-116 colon
SF-295 CNS = system: SF-295 CNS
LXFL 529 NSCLC = system: LXFL 529 NSCLC
OVCAR-4 ovarian = system: OVCAR-4 ovarian
DMS 273 small cell lung = system: DMS 273 small cell lung
DLD-1 colon = system: DLD-1 colon
SK-MEL-2 melanoma = system: SK-MEL-2 melanoma
SNB-78 CNS = system: SNB-78 CNS
KM12 colon = system: KM12 colon
NCI-H23 lung = system: NCI-H23 lung
M19-MEL melanoma = system: M19-MEL melanoma
TK-10 renal = system: TK-10 renal
NCI-H226 lung = system: NCI-H226 lung
SK-MEL-5 melanoma = system: SK-MEL-5 melanoma
DMS 114 small cell lung = system: DMS 114 small cell lung
A498 renal = system: A498 renal
HL-60(TB) leukemia = system: HL-60(TB) leukemia
786-0 renal = system: 786-0 renal
SNB-19 CNS = system: SNB-19 CNS
EKVX NSCLC = system: EKVX NSCLC
IGROV1 ovarian = system: IGROV1 ovarian
CCRF-CEM leukemia = system: CCRF-CEM leukemia
K-562 leukemia = system: K-562 leukemia
UO-31 renal = system: UO-31 renal
SNB-75 CNS = system: SNB-75 CNS
HT29 colon = system: HT29 colon
SR leukemia = system: SR leukemia
OVCAR-8 ovarian = system: OVCAR-8 ovarian
SK-MEL-28 melanoma = system: SK-MEL-28 melanoma
ACHN renal = system: ACHN renal
SW-620 colon = system: SW-620 colon
NCI-H460 lung = system: NCI-H460 lung
OVCAR-3 ovarian = system: OVCAR-3 ovarian
MALME-3M melanoma = system: MALME-3M melanoma
HOP-62 NSCLC = system: HOP-62 NSCLC
NCI-H522 lung = system: NCI-H522 lung
MOLT-4 leukemia = system: MOLT-4 leukemia
SF-268 CNS = system: SF-268 CNS
COLO 205 colon = system: COLO 205 colon
HCT-15 colon = system: HCT-15 colon
RPMI-8226 leukemia = system: RPMI-8226 leukemia
LOX IMVI melanoma = system: LOX IMVI melanoma

Measured: TGI

Oc1c(-c2ccccc2)nc2ccccn12
not listed: COLO 205 colon | HCT-15 colon | RPMI-8226 leukemia | LOX IMVI melanoma
> 100 µM: all other assays above

COC(=O)c1nn(-c2ccccc2)c(=O)cc1N=[N+]=[N-]
not listed: DLD-1 colon | SK-MEL-2 melanoma | SNB-75 CNS
> 100 µM: all other assays above
